Patent US20250090441A1, “ANTI-CARIES PEPTIDES WITH ANTIMICROBIAL AND REMINERALIZING PROPERTIES AND METHODS THEREOF” (THE UNIVERSITY OF HONG KONG, priority 2023, published 2025)
Bridges are numbered along the chain shown (N, C = ends). Where no end group is shown, it is not given here.

What was measured:
[1] = Remineralizing effects on enamel, chemical pH cycling model (SEM-EDS, Micro-CT, XRD); set-up: species or system human; conditions: 160 μM twice daily, pH cycling 8 days, n = 8; for Calcium to phosphate molar ratio: EDS; for Lesion depth / Mineral loss: Micro-CT
Description: Ten enamel slices were cut from extracted sound human molars. Each slice was separated into four blocks. A total of 40 enamel blocks were prepared. Then the surface of the enamel block was half-covered by an acid-resistant varnish. The exposed half was the experimental surface, and the varnished half was the internal control. Before use, all the enamel blocks were sterilized via autoclave (Niu et al. 2021d; Yu et al. 2018).
The pH-cycling procedure (16 h-demineralization at pH 4.5 and 8 h-remineralization at pH 7.0) was performed to enamel blocks for 8 days. The formula for demineralizing/remineralizing solution was employed from a previous study (Yu et al. 2018). The enamel blocks from the same enamel slice were treated twice daily with 160 μM GAPI (GAPI Group), 160 μM gallic acid (GA Group), 160 μM polyphemusin-I (PI Group), and sterile deionized water (Water Group). All enamel blocks after pH cycling were involved in sequent assessments.
The structure of the enamel surface was examined using SEM (n=8 per group) (Niu et al. 2021d). The elemental analysis of enamel surface was conducted using affiliated energy-dispersive X-ray spectroscopy (EDS). The calcium to phosphorus molar ratio was calculated (Niu et al. 2022). The mineral loss and lesion depth on the enamel blocks were assessed using microcomputed tomography (Micro-CT) (1076, SkyScan, Antwerp, Belgium) (n=8 per group) (Niu et al. 2022). The diffraction patterns of the enamel blocks were evaluated using X-ray diffraction analysis (XRD) (Rigaku SmartLab 9 kW, […]) (n=2 per group) (Yu et al. 2018).

[2] = test system: Candida albicans, ATCC 90028; format: cell-based; conditions: μM
Description: (§1) The antimicrobial properties of synthesized peptides against bacteria and fungi were evaluated using minimum inhibitory concentration (MIC) and minimum bactericidal/fungicidal concentration (MBC/MFC) tests (Wiegand et al. 2008). The tested species include Streptococcus mutans, UA159; Lacticaseibacillus casei, American Type Culture Collection (ATCC) 334; and Candida albicans, ATCC 90028. A 10 μL aliquot of bacterial culture (10^6 CFU/mL) in brain heart infusion (BHI) broth was added to 100 μL serial two-fold dilutions of experimental solutions. The optical density values at 660 nm were measured after 18 h of incubation. To determine the MBC, 10 μL of bacterial culture was taken from the well of MIC, and wells before and after the well of MIC, and transferred to blood agar. The test protocol for fungi was similar: the culture medium was a Roswell Park Memorial Institute (RPMI) 1640 Medium, the absorbance was measured at 520 nm, and Sabouraud dextrose agar was used for the MFC test. Chlorhexidine and medium were used as the positive and negative controls.

[3] = test system: Streptococcus mutans, UA159; assay: MIC and MBC/MFC test; format: cell-based; conditions: Streptococcus mutans (UA159); μM
Description: as §1

[4] = test system: Lacticaseibacillus casei, ATCC 334; assay: MIC and MBC/MFC test; format: cell-based; conditions: μM
Description: as §1

| Molecule | Calcium to phosphate molar ratio [1] | Lesion depth [1] [μm] | Mineral loss [1] [gHApcm^−3] | MBC/MFC [2] | MIC [2] | MBC/MFC [3] | MIC [3] | MBC/MFC [4] | MIC [4] |
| --- | --- | --- | --- | --- | --- | --- | --- | --- | --- |
| O=C(O)c1cc(O)c(O)c(O)c1 [GA, Gallic Acid] | 1.82 ± 0.08 | 62 ± 12 | 0.88 ± 0.24 |  |  |  |  |  |  |
| Polyphemusin-I (RRWCFRVCYRGFCYRKCR; disulfide 8-13, 4-17) [PI, reference compound] | 1.70 ± 0.06 | 96 ± 9 | 1.32 ± 0.26 | 0.6 | 0.3 | 80 | 20 | 160 | 20 |
